# Values of other authors, collected in patent US20230330126A1, “MODIFIED ADENOSINE NUCLEOSIDE FOR USE IN THE TREATMENT OF VIRAL INFECTIONS” (priority 2020, published 2023).
# Assays:
# [1] = animal and human studies
Compound,efficacy compared with theophylline [1],tolerability profile compared with theophylline [1],half-life
"Cn1c(=O)c2c(ncn2CC2OCCO2)n(C)c1=O [doxofylline, Doxofylline]",comparable efficacy to that of theophylline,"better tolerability profile, with significantly fewer side effects",–
"O=c1[nH]cnc2c1ncn2[C@@H]1O[C@H](CO)[C@@H](O)[C@H]1O [inosine, Inosine]",–,–,15 h
